Test results published in US20230357099A1, “PYRAZOLO [3,4-B] PYRIDINE-4-CARBOXAMIDE NITRIFICATION INHIBITOR” (EUROCHEM ANTWERPTEN, priority 2020, published 2023).
Read-outs that look alike come from different tables or passages of the source.

Legend:
[1] = test system: ABIL (ammonia-binding liquid inoculum), nitrifying microbial enrichment containing both AOA and AOB; experiment: Nitrification inhibition assay on ABIL (ammonium consumption); format: cell-based; conditions: 10 µM compound
[2] = test system: Nitrososphaera viennensis; experiment: Nitrification inhibition assay on Nitrososphaera viennensis (nitrite, Griess); format: cell-based, Nitrososphaera viennensis EN76T; conditions: for activity at 2.5 µM: Nitrososphaera viennensis, 2.5 µM compound, structural variants outside formula (I), read-out: Relative nitrification (%) by Nitrososphaera viennensis treated with 2.5 µM compound; for N. viennensis - relative nitrification (%) at 0.5 µM: 0.5 µM compound; for N. viennensis - relative nitrification (%) at 0.5 µM / N. viennensis - relative nitrification (%) at 5 µM / N. viennensis - relative nitrification (%) at 25 µM: 0% = as strong as 100 µM PTIO, 100% = no inhibition; for N. viennensis - relative nitrification (%) at 5 µM: 5 µM compound; for N. viennensis - relative nitrification (%) at 25 µM: 25 µM compound
Protocol: Nitrite (NO2—) was measured using the Griess reagent (Product number: G4410, Griess reagent (modified), Sigma-Aldrich). Equal volumes of the sample or a diluted sample and the Griess reagent were mixed a transparent flat bottom multi-well plate and incubated in the dark at room temperature for 10 minutes. Absorbance values at 540 nm were measured spectrophotometrically (EnVision, Perkin Elmer®) and used to calculate the [NO2—] by use of a standard curve.
A liquid culture sample of Nitrososphaera viennensis EN76T was kindly supplied by prof. dr. Christa Schleper (University of Vienna). Cells were grown in fresh water medium (FWM) as described earlier by Tourna et al. (2011). All necessary materials were rinsed with 1 % HCl and washed at least 3 times with MilliQ water. FWM (pH 7.5 (KOH)) contained 17 mM NaCl, 3 mM MgCl2 × 2 H2O, 680 µM CaCl2 × 2 H2O, 1.47 mM KH2PO4 and 6.71 mM KCI. After autoclaving, successively 1 mL non-chelated trace element mixture (101 mM HCl, 488 µM H3BO3, 508 µM MnCl2 × 4 H2O, 803 µM CoCl2 × 6 H2O, 101 µM NiCl2 × 6 H2O, 12 µM CuCl2 × 2 H2O, 503 µM ZnSO4 × 7 H2O and 150 µM Na2MoO4 × 2 H2O), 1 mL Fe-NaEDTA (7.5 mM), 1 mL vitamin solution (20 mg/L biotin, 20 mg/L folic acid, 100 mg/L pyridoxine-HCl, 50 mg/L thiamine-HCl, 50 mg/L riboflavin, 50 mg/L nicotinic acid, 50 mg/L DL-pantothenic acid, 50 mg/L P-aminobenzoic acid, 2 g/L choline chloride and 10 mg/L vitamin B12), 2 mL NaHCO3 (1 M), 2 mL kanamycin (100 mg/mL), 2 mL carbenicillin (100 mg/mL), 3 mL NH4Cl (1 M), 10 mL HEPES buffer (1 M, pH 7.6) and 1 mL Na-pyruvate (0.1 M) were added aseptically. All stock-solutions were filter-sterilized, except the autoclaved non-chelated trace element mixture. Cultures were incubated aerobically at 42° C. without shaking in sterile 250-mL Erlenmeyer flasks or 30-mL cultivation tubes (Product number: 216-1290, Quickstart universal containers STERILIN®, VWR) filled with either 100 or 20 mL FWM and sealed with tape (Micropore™ Surgical Tape 1530-1, 3M™). Late-log phase cultures ([NO2-] ≥ 1 mM) were subcultivated by dilution (1:400) in fresh FWM.
7-day old 100 mL cultures grown in 250-mL Erlenmeyer flasks with a [NO2-] ≥ 1 mM were 5 times overconcentrated in fresh FWM by centrifugation (4000 rpm, 15 min, 5° C.) in 50 mL centrifuge tubes (Cat. No. 430829, CentriStar™ Conical Centrifuge Tubes, Corning®). Per batch, all the cultures were pooled in one sterile Schott bottle. Subsequently, 200 µl/well was dispensed at low pipetting speed in transparent flat bottom 96-well plates (Cat. No. 353072, Falcon® 96 Well Clear Microplate, Corning®) using 150 µl wide-bore tips (two steps of 100 µl) on a Tecan robot (Freedom EVO®, Tecan). 0.5 µl of 99.99 % DMSO (negative control - final concentration 0.25%) and 0.5 µl of 0.04 M PTIO (2-phenyl-4,4,5,5-tetramethylimidazoline-1-oxyl 3-oxide, positive control - final concentration 100 µM) were added manually to the first and last column respectively. Finally, 0.5 µl of candidate nitrification inhibitors (1 mM stock solutions in 99.99% DMSO - final concentration 2.5 µM) were added to the central wells using a pin tool on a Tecan robot (Freedom EVO®, Tecan). In between additions, the pins were washed in sequence with 99.5% DMSO, MilliQ water and 100% ethanol and air-dried. All plates were sealed with tape (Micropore™ Surgical Tape 1530-1, 3M™), stacked per 4 on top of a 96-well plate filled with 100 µl MilliQ per well and covered with aluminum foil. Position effects of the stacks within the incubator were considered. Plates were incubated at 42° C. without shaking. 24 h later, NO2— was measured spectrophotometrically at 540 nm (EnVision, Perkin Elmer®). […]

[3] = structural variants outside formula (I), read-out: Relative nitrification (%) by ABIL treated with 10 µM compound
[4] = 24 h, 24 h, 0% = as strong as 100 µM PTIO, 100% = no inhibition, read-out: ABIL - relative nitrification (%) at 10 µM

Row | Compound | activity at 10 µM [1, 3] [%] | activity at 2.5 µM [2] [%] | activity at 10 µM [1, 4] [%] | further results
1 | Cc1nc2c(cnn2C(C)C)cc1C(=O)N1CCSCC1 [Example 78] | 100 | 100 | – | –
2 | N#Cc1nn(CN2CCSCC2)c2ccc(Cl)cc12 [Example 96] | 85 | 96 | – | –
3 | O=C(c1n[nH]c2ccccc12)N1CCSCC1 [Example 123] | 100 | 92 | – | –
4 | c1csc(Cn2ncc3ccc(-c4ccc5c(c4)OCO5)nc32)c1 [Example 25] | 91 | 100 | – | –
5 | CC(C)n1ncc2cc(NC(=O)CCC3CCCO3)cnc21 (centres unmarked) [Example 35] | 96 | 98 | – | –
6 | CCC(C)(CC)NC(=O)COc1nn(C)c2nc(C)cc(C)c12 [Example 64] | 100 | 100 | – | –
7 | Cc1nn(C)c2ncc(CN3CCNCC3C)cc12 (centres unmarked) [Example 82] | 100 | 96 | – | –
8 | CN(C(=O)Nc1ccc2c(cnn2C(F)F)c1)C1CCSC1 (centres unmarked) [Example 159] | 100 | 91 | – | –
9 | COc1ccccc1CN(C)C(=O)c1cc2cnn(C(C)C)c2nc1C [Example 93] | 100 | 100 | – | –
10 | CNC(=O)C1(C(=O)Nc2cnc3c(cnn3C(C)C)c2)CC1 [Example 69] | 100 | 100 | – | –
11 | Cc1n[nH]c2nc(C(F)(F)F)cc(C(F)(F)F)c12 [Example 20] | 90 | 100 | – | –
12 | Cc1nc2c(cnn2C(C)C)cc1C(=O)N1CCc2ccccc21 [Example 74] | 100 | 100 | – | –
13 | CC(Oc1ccc(Br)cc1)C(=O)Nc1cnc2c(cnn2C(C)C)c1 (centres unmarked) [Example 22] | 90 | 100 | – | –
14 | CC(C)n1ncc2c(C(=O)NCCN(C)C)cc(C3CC3)nc21 [Example 15] | – | – | 65 | –
15 | CC(C)n1ncc2c(C(=O)NCCc3ccccn3)cc(C3CC3)nc21 [Example 10] | – | – | 19 | –
16 | CC(C)c1cc(C(=O)NCC2CCCO2)c2cnn(C(C)C)c2n1 (centres unmarked) [Example 4] | – | – | – | ABIL - relative nitrification (%) at 10 µM ([1]; 24 h, 0% = as strong as 100 µM PTIO, 100% = no inhibition): 10%
17 | CC(C)n1ncc2c(C(=O)Nc3nc4c(s3)CCC4)cc(C3CC3)nc21 [Example 7] | – | – | – | N. viennensis - relative nitrification (%) at 0.5 µM [2]: 85%; N. viennensis - relative nitrification (%) at 5 µM [2]: 7%; N. viennensis - relative nitrification (%) at 25 µM [2]: 2%
18 | CCCN(C)C(=O)c1cc(C2CC2)nc2c1cnn2C(C)C [Example 18] | – | – | 69 | –
19 | Cc1nn(C)c2nc(-c3ccco3)cc(C(=O)N(C)CCOc3cccc(Cl)c3)c12 [Example 8] | – | – | – | N. viennensis - relative nitrification (%) at 0.5 µM [2]: 100%; N. viennensis - relative nitrification (%) at 5 µM [2]: 98%; N. viennensis - relative nitrification (%) at 25 µM [2]: 5%
20 | COCCNC(=O)c1cc(C2CC2)nc2c1cnn2C(C)C [Example 5] | – | – | 11 | –
21 | Cc1nn(C)c2nc(C3CC3)cc(C(=O)NCCC(C)C)c12 [Example 16] | – | – | 65 | –
22 | CCC(C)NC(=O)c1cc(C(C)C)nc2c1cnn2C(C)C (centres unmarked) [Example 14] | – | – | 61 | –
23 | Cc1nn(C(C)(C)C)c2nc(C3CC3)cc(C(=O)NC(C)C)c12 [Example 12] | – | – | 30 | –
24 | COCCONC(=O)c1cc(C2CC2)nc2c1c(C)nn2C(C)(C)C [Example 6] | – | – | 16 | –
